# Laboratory results as given in patent US20220282271A1, “HERBICIDE RESISTANT PLANTS AND METHODS OF MAKING AND USING” (OFFICE OF INNOVATION ADVANCEMENT AND COMMERCIALIZATION, priority 2019, published 2022).
# Key:
# Format in all cases: in vivo
# Settings in all cases: 1.0 lb ai/a, applied approximately 3 weeks after emergence, relative to non-treated
# Solanum carolinense = assay: Weed control screen: Carolina horsenettle
# Description: (§1) Herbicides were applied at a spray volume of 280 L/ha with no adjuvant added to any herbicide mixture. Weed control was rated on a 0 to 100 percent phytoxicity scale with 0 being no plant injury/phytotoxicity and 100 being complete plant dessication. Twenty-one weeds were evaluated for response to herbicides (Table 3). The weeds selected were a mixture of weeds common in agronomic and horticultural crops. Herbicide was applied to all species approximately 3 weeks after emergence. Plant phytotoxicity rated as percent control relative to the non-treated.
# Ipomoea hederacea = assay: Weed control screen: entireleaf morningglory
# Description: as §1
# Jaquemontia tamnifolia = assay: Weed control screen: smallflower morningglory
# Description: as §1
# Murdannia nudiflora = assay: Weed control screen: doveweed
# Description: as §1
# Eleusine indica = assay: Weed control screen: goosegrass
# Description: as §1
# Senna obtusifolia = assay: Weed control screen: sicklepod
# Description: as §1
# Ipomoea coccinea = assay: Weed control screen: red morningglory
# Description: as §1
# Albizia julibrissin = assay: Weed control screen: silktree
# Description: as §1
# Kyllinga squamulata = assay: Weed control screen: cock's comb kyllinga
# Description: as §1
# Sorghum halapense = assay: Weed control screen: johnsongrass
# Description: as §1
# Ipomoea lacunosa = assay: Weed control screen: pitted morningglory
# Description: as §1
# Amaranthus hybridus = assay: Weed control screen: smooth pigweed
# Description: as §1
# Abutilon theophrasti = assay: Weed control screen: velvetleaf
# Description: as §1
# Amaranthus palmeri = assay: Weed control screen: glyphosate resistant palmer amaranth
# Description: as §1
# Crotalaria spectabilis = assay: Weed control screen: showy crotalaria
# Description: as §1
# Physalis angulata = assay: Weed control screen: cutleaf groundcherry
# Description: as §1
# Sida spinosa = assay: Weed control screen: prickly sida
# Description: as §1
# Sesbania exaltata = assay: Weed control screen: hemp sesbania
# Description: as §1
# Conyza candensis = assay: Weed control screen: glyphosate-resistant horseweed
# Description: as §1
# Cyperus iria = assay: Weed control screen: rice flatsedge
# Description: as §1
# Ipomoea quamoclit = assay: Weed control screen: cypressvine morningglory
# Description: as §1
Structure (SMILES),Percent control (0 to 100) (Solanum carolinense) [%],Percent control (0 to 100) (Ipomoea hederacea) [%],Percent control (0 to 100) (Jaquemontia tamnifolia) [%],Percent control (0 to 100) (Murdannia nudiflora) [%],Percent control (0 to 100) (Eleusine indica) [%],Percent control (0 to 100) (Senna obtusifolia) [%],Percent control (0 to 100) (Ipomoea coccinea) [%],Percent control (0 to 100) (Albizia julibrissin) [%],Percent control (0 to 100) (Kyllinga squamulata) [%],Percent control (0 to 100) (Sorghum halapense) [%],Percent control (0 to 100) (Ipomoea lacunosa) [%],Percent control (0 to 100) (Amaranthus hybridus) [%],Percent control (0 to 100) (Abutilon theophrasti) [%],Percent control (0 to 100) (Amaranthus palmeri) [%],Percent control (0 to 100) (Crotalaria spectabilis) [%],Percent control (0 to 100) (Physalis angulata) [%],Percent control (0 to 100) (Sida spinosa) [%],Percent control (0 to 100) (Sesbania exaltata) [%],Percent control (0 to 100) (Conyza candensis) [%],further results
"O=C(O)CNCP(=O)(O)O [Glyphosate, glyphosate]",50,60,40,80,90,70,50,25,95,100,60,90,100,35,60,99,60,75,0,–
"CP(=O)(O)CCC(N)C(=O)O (stereo not shown) [Glufosinate, glufosinate]",100,100,100,100,100,100,100,100,30,100,100,100,100,100,100,100,100,100,100,Percent control (0 to 100) (Cyperus iria): 60%; Percent control (0 to 100) (Ipomoea quamoclit): 100%
